Source: patent US11319299B2, “Substituted carboxamides as inhibitors of WDR5 protein-protein binding” (PROPELLON THERAPEUTICS INC., priority 2016, dated 2022)
Where two headings read alike, the source gives them in different places.

Key:
[1] = target: WDR5 (Homo sapiens (Human), UniProt P61964); experiment: Surface Plasmon Resonance (SPR) assay, KD and residence time; format: binding; settings: read-out: WDR5 binding affinity (KD)
[2] = tested on: MV4-11 cells; experiment: Cell proliferation assay (ATPlite); format: cell-based; settings: MV-411 cells, five days, read-out: In vitro whole cell potency in MV-411 cells, (IC50)
Method: (iv) Cell Proliferation Assay
MV4-11 cells were seeded into a 96-well plate at 1,000 cells/well in 150 μl medium (Alpha-MEM containing 10% FBS, 100 μg/ml Normocin, and 50 μg/ml Gentamycin, Invitrogen). A HP D300 digital dispenser was used to dose cells with DMSO or test compounds across a 10-point range of concentrations (high dose of 10 μM), and cultures were grown in a humidified 5% CO2 incubator at 37° C. After five days, plates were removed from the incubator and equilibrated to room temperature. An equal volume of ATPlite assay reagent was added to each well, and samples were processed according to manufacturer's instructions (Perkin Elmer). Luminescent signal was measured using an Envision plate reader equipped with a US-Luminescence detector.

[3] = surface plasmon resonance (SPR)
[4] = surface plasmon resonance (SPR) assay

Compound | Kd [1, 3] | IC50 [2] | IC50 ([2]; Homo sapiens, MV4-11, 120 h) | Kd [1, 4]
4-(difluoromethyl)-N-[4-fluoro-5-[2-[(3R)-3-methylmorpholin-4-yl]pyrimidin-5-yl]-2-[(3S,5R)-3,4,5-trimethylpiperazin-1-yl]phenyl]-6-oxo-1H-pyridine-3-carboxamide [Example 521] | 0.579 nM | 68 nM | – | –
C[C@@H]1CN(c2ncc(-c3cc(NC(=O)c4ccc(F)cc4C(F)(F)F)c(N4CCN(C)[C@@H](C)C4)cc3F)cn2)C[C@H](C)O1 (racemic) [Example 430, 4-fluoro-N-[4-fluoro-5-[2-[(2R,6S)-2,6-dimethylmorpholin-4-yl]pyrimidin-5-yl]-2-[(3R)-3,4-dimethylpiperazin-1-yl]phenyl]-2-(trifluoromethyl)benzamide] | 0.296 nM | – | 49 nM | –
C[C@@H]1CN(c2cc(F)c(-c3cnc(N4CCO[C@@H](C)C4)nc3)cc2NC(=O)c2cn(C)c(=O)cc2C(F)(F)F)C[C@H](C)N1C (racemic) [Example 451, N-[4-fluoro-5-[2-[(2R)-2-methylmorpholin-4-yl]pyrimidin-5-yl]-2-[(3S,5R)-3,4,5-trimethylpiperazin-1-yl]phenyl]-1-methyl-6-oxo-4-(trifluoromethyl)pyridine-3-carboxamide] | 1.72 nM | – | 92 nM | –
CC1CN(c2cc(F)c(-c3cnc(C#N)nc3)cc2NC(=O)c2c[nH]c(=O)cc2C(F)(F)F)CCN1C (stereo in doubt) [Example 197, N-[5-(2-cyanopyrimidin-5-yl)-4-fluoro-2-[(3R)-3,4-dimethylpiperazin-1-yl]phenyl]-6-oxo-4-(trifluoromethyl)-1H-pyridine-3-carboxamide] | – | – | 44 nM | 0.681 nM
CC1CN(c2cc(F)c(-c3cnc(N4C[C@@H](C)O[C@@H](C)C4)nc3)cc2NC(=O)c2c[nH]c(=O)cc2C(F)(F)F)CCN1C (stereo in doubt) [Example 202, N-[4-fluoro-5-[2-[(2R,6S)-2,6-dimethylmorpholin-4-yl]pyrimidin-5-yl]-2-[(3R)-3,4-dimethylpiperazin-1-yl]phenyl]-6-oxo-4-(trifluoromethyl)-1H-pyridine-3-carboxamide] | – | – | 20 nM | 0.434 nM
CC1CN(c2cc(F)c(-c3cnc(N4CCN(C)CC4)nc3)cc2NC(=O)c2cn(C)c(=O)cc2C(F)(F)F)CCN1C (stereo in doubt) [Example 279, N-[4-fluoro-5-[2-(4-methylpiperazin-1-yl)pyrimidin-5-yl]-2-[(3R)-3,4-dimethylpiperazin-1-yl]phenyl]-1-methyl-6-oxo-4-(trifluoromethyl)pyridine-3-carboxamide] | – | – | 118 nM | 2.08 nM
CC1CN(c2cc(F)c(-c3ccc(N4C[C@@H](C)O[C@@H](C)C4)nc3)cc2NC(=O)c2c[nH]c(=O)cc2C(F)(F)F)CCN1C (stereo in doubt) [Example 341, N-[4-fluoro-5-[6-[(2R,6S)-2,6-dimethylmorpholin-4-yl]pyridin-3-yl]-2-[(3R)-3,4-dimethylpiperazin-1-yl]phenyl]-6-oxo-4-(trifluoromethyl)-1H-pyridine-3-carboxamide] | – | – | 52 nM | 1.97 nM
CC(C)C1CN(c2ncc(-c3cc(NC(=O)c4c[nH]c(=O)cc4C(F)(F)F)c(N4C[C@@H](C)N(C)[C@@H](C)C4)cc3F)cn2)CCO1 (stereo in doubt) [Example 348, N-[4-fluoro-5-[2-[(2R)-2-propan-2-ylmorpholin-4-yl]pyrimidin-5-yl]-2-[(3S,5R)-3,4,5-trimethylpiperazin-1-yl]phenyl]-6-oxo-4-(trifluoromethyl)-1H-pyridine-3-carboxamide] | – | – | 42 nM | 2.28 nM
CC1CN(c2cc(F)c(-c3cnc(N4C[C@@H](C)O[C@@H](C)C4)nc3)cc2NC(=O)c2cn(C)c(=O)cc2C(F)F)CCN1C (stereo in doubt) [Example 383, 4-(difluoromethyl)-N-[4-fluoro-5-[2-[(2R,6S)-2,6-dimethylmorpholin-4-yl]pyrimidin-5-yl]-2-[(3R)-3,4-dimethylpiperazin-1-yl]phenyl]-1-methyl-6-oxopyridine-3-carboxamide] | – | – | 149 nM | 1.19 nM
C[C@@H]1CN(c2ncc(-c3cc(NC(=O)c4c[nH]c(=O)cc4C(F)F)c(N4CCN(C)[C@H](C)C4)cc3F)cn2)CCO1 (stereo in doubt) [Example 398, 4-(difluoromethyl)-N-[4-fluoro-2-[(3R)-3,4-dimethylpiperazin-1-yl]-5-[2-[(2R)-2-methylmorpholin-4-yl]pyrimidin-5-yl]phenyl]-6-oxo-1H-pyridine-3-carboxamide] | 0.899 nM | – | 44 nM | –
CN1CCN(c2cc(F)c(-c3cncc(CNC4CCOCC4)c3)cc2NC(=O)c2c[nH]c(=O)cc2C(F)(F)F)CC1 [Example 48, N-(4-fluoro-2-(4-methylpiperazin-1-yl)-5-(5-(((tetrahydro-2H-pyran-4-yl)amino)methyl)pyridin-3-yl)phenyl)-6-oxo-4-(trifluoromethyl)-1,6-dihydropyridine-3-carboxmaide] | – | – | > 10000 nM | –
CN1CCN(c2cc(F)c(-c3cncc(CN[C@@H]4CCOC4)c3)cc2NC(=O)c2c[nH]c(=O)cc2C(F)(F)F)CC1 [Example 49, (R)—N-(4-fluoro-2-(4-methylpiperazin-1-yl)-5-(5-(((tetrahydrofuran-3-yl)amino)methyl)pyridin-3-yl)phenyl)-6-oxo-4-(trifluoromethyl)-1,6-dihydropyridine-3-carboxamide] | – | – | > 10000 nM | –
C[C@@H]1CN(c2cc(F)c(-c3cccc(CN4CCOCC4)c3)cc2NC(=O)c2c[nH]c(=O)cc2C(F)(F)F)CCN1C [Example 50, (R)—N-(4-(3,4-dimethylpiperazin-1-yl)-6-fluoro-3′-(morpholinomethyl)-[1,1′-biphenyl]-3-yl)-6-oxo-4-(trifluoromethyl)-1,6-dihydropyridine-3-carboxamide] | – | – | 2900 nM | –
C[C@H]1CN(c2cc(F)c(-c3cccc(CN4CCOCC4)c3)cc2NC(=O)c2c[nH]c(=O)cc2C(F)(F)F)CCN1C [Example 51, (S)—N-(4-(3,4-dimethylpiperazin-1-yl)-6-fluoro-3′-(morpholinomethyl)-[1,1′-biphenyl]-3-yl)-6-oxo-4-(trifluoromethyl)-1,6-dihydropyridine-3-carboxamide] | – | – | 389 nM | –
C[C@@H]1CN(c2cc(F)c(-c3cccc(CN4CCOCC4)c3)cc2NC(=O)c2c[nH]c(=O)cc2C(F)(F)F)C[C@H](C)N1C [Example 52, N-(6-fluoro-3′-(morpholinomethyl)-4-((3R,5S)-3,4,5-trimethylpiperazin-1-yl)-[1,1′-biphenyl]-3-yl)-6-oxo-4-(trifluoromethyl)-1,6-dihydropyridine-3-carboxamide] | – | – | > 10000 nM | –
CN(C)C1CCN(c2cc(F)c(-c3cccc(CN4CCOCC4)c3)cc2NC(=O)c2c[nH]c(=O)cc2C(F)(F)F)C1 (centres unmarked) [Example 53, N-(4-(3-(dimethylamino)pyrrolidin-1-yl)-6-fluoro-3′-(morpholinomethyl)-[1,1′-biphenyl]-3-yl)-6-oxo-4-(trifluoromethyl)-1,6-dihydropyridine-3-carboxamide] | – | – | > 10000 nM | –
COc1cc(N2C[C@@H](C)N(C)[C@@H](C)C2)c(NC(=O)c2c[nH]c(=O)cc2C(F)(F)F)cc1-c1cnc(N2CCOCC2)nc1 [Example 55, N-[4-methoxy-5-(2-morpholin-4-ylpyrimidin-5-yl)-2-[(3R,5S)-3,4,5-trimethylpiperazin-1-yl]phenyl]-6-oxo-4-(trifluoromethyl)-1H-pyridine-3-carboxamide] | – | – | 389 nM | –
CN1CCN(c2ccc(-c3cnc(N4CCOCC4)nc3)cc2NC(=O)c2c[nH]c(=O)cc2C(F)(F)F)CC1 [Example 56, N-(2-(4-methylpiperazin-1-yl)-5-(2-morpholinopyrimidin-5-yl)phenyl)-6-oxo-4-(trifluoromethyl)-1,6-dihydropyridine-3-carboxamide] | – | – | 435 nM | –
C[C@@H]1CN(c2ccc(-c3cnc(N4CCOCC4)nc3)cc2NC(=O)c2c[nH]c(=O)cc2C(F)(F)F)C[C@H](C)N1C [Example 58, N-(5-(2-morpholinopyrimidin-5-yl)-2-((3R,5S)-3,4,5-trimethylpiperazin-1-yl)phenyl)-6-oxo-4-(trifluoromethyl)-1,6-dihydropyridine-3-carboxamide] | – | – | 1470 nM | –
C[C@@H]1CN(c2ncc(-c3cc(NC(=O)c4c[nH]c(=O)cc4C(F)F)c(N4CCN(C)[C@@H](C)C4)cc3F)cn2)C[C@H](C)O1 [Example 395, 4-(difluoromethyl)-N-[4-fluoro-5-[2-[(2R,6S)-2,6-dimethylmorpholin-4-yl]pyrimidin-5-yl]-2-[(3S)-3,4-dimethylpiperazin-1-yl]phenyl]-6-oxo-1H-pyridine-3-carboxamide] | – | – | 31 nM | –
C[C@@H]1CN(c2cc(F)c(-c3cccc(N4CCOCC4)n3)cc2NC(=O)c2c[nH]c(=O)cc2C(F)(F)F)C[C@H](C)N1C [Example 473, N-[4-fluoro-5-(6-morpholin-4-ylpyridin-2-yl)-2-[(3R,5S)-3,4,5-trimethylpiperazin-1-yl]phenyl]-6-oxo-4-(trifluoromethyl)-1H-pyridine-3-carboxamide] | – | – | 32 nM | –
C[C@@H]1CN(c2cc(F)c(-c3ccnc(N(C)C)n3)cc2NC(=O)c2c[nH]c(=O)cc2C(F)(F)F)C[C@H](C)N1C [Example 540, N-[5-[2-(dimethylamino)pyrimidin-4-yl]-4-fluoro-2-[(3R,5S)-3,4,5-trimethylpiperazin-1-yl]phenyl]-6-oxo-4-(trifluoromethyl)-1H-pyridine-3-carboxamide] | – | – | 27 nM | –
